Results: patent US8895596B2, “Cyclic benzimidazole derivatives useful as anti-diabetic agents” (Merck Sharp & Dohme Corp, priority 2010, dated 2014)

Experiments:
[1] = molecular target: recombinant human AMPK complex 1 (containing α1β1γ1) (Homo sapiens, UniProt Q13131+Q9Y478); assay: in vitro AMPK activation assay (AMPKSAMSF); format: biochemical; conditions: recombinant human AMPK complex 1 (α1β1γ1); for EC50: table
Description: AMPKSAMSF (in vitro AMPK Activation Assay)
The recombinant human AMPK complex 1 (containing α1β1γ1) was obtained from baculovirus expression system. Recombinant viruses were generated by cotransfection of AMPK/pBacPak9 clones with Baculogold baculovirus DNA (Pharmingen) in spodoptera frugiperda 21 cells according to the manufacturer's instructions. Each round of virus amplification was performed for 5 days in Grace's medium containing 10% serum. Virus that had been subjected to three rounds of amplification was used for all protein production procedures. To express the AMPK complex, sf21 cells were adapted to serum free medium (SF900 II, Invitrogen) by sequential dilution from serum containing stocks into SF900II medium and maintained in shaker flasks at 90 rpm at 27° C. The recombinant AMPK enzyme complex was produced by triple infection, one recombinant virus for each of the subunits, in sf21 cells under serum free conditions. Cells were infected in log phase, 1×10^6 cells/ml, at a multiplicity of infection […] were harvested by centrifugation at 10,000×g for 15 minutes after 72 hours of infection with viruses. The insect cell pellet from 2 liters of culture was resuspended in 50 ml lysis buffer (20 mM Tris-HCl, 50 mM NaCl, 50 mM NaF, 30 mM Na PPi, 0.25 M sucrose, 10 mM ZnCl2, 2 mM DTT, 0.4 mg/ml digitonin) and subjected to two cycles of freeze-thaw lysis in a dry-ice ethanol bath. Insoluble material was removed by centrifugation at 10,000×g and the supernatant was fractionated with use of polyethylene glycol (PEG). The protein fraction precipitating between 2.5 and 6% PEG was used for further purification using a Blue-Sepharose step (Zhou et al, J. Clin. Invest. 108, 1167-1174, 2001).
The in vitro AMPK activation assay is performed in a volume of 30 μl in a 384-well plate. Enzyme reactions were assembled in the microtiter plate by adding 15 μl of 2× enzyme in assay buffer (20 mM HEPES, pH 7.3, 5 mM MgCl2, 3 mM DTT, 0.01% Brij 35 and CamK Kinase, to activate AMPK) to wells which contained either DMSO or compound. The reaction was initiated with the addition of […] substrate mixture containing 200 μM ATP, and 3.0 μM fluorescently labeled SAMS (5-FAM-HMRSAMSGLHLVKRR-COOH) in assay buffer. After 45-minute incubation at 25° C., the reaction was stopped by the addition of 70 μl stop buffer (100 mM HEPES, pH 7.3, 40 mM EDTA, 0.015% Brij 35). Phosphorylated 5-FAM SAMS product is assessed using a Caliper EZ Reader LabChip microfluidics reader. Product conversion is determined by calculating the peak heights of the substrate and product and reporting the product/(product+substrate) peak ratio. The 10-point titration data were expressed as maximum AMP activation. The results were plotted using 4 parameter fit and the inflection point reflecting 50% of the maximum activation was reported as the EC50.

ob/ob and db/db mice = conditions: following 8 weeks of administration; cited from earlier work

recombinant human AMPK complex 1 (containing α1β1γ1), sequence (Q13131 whole entry): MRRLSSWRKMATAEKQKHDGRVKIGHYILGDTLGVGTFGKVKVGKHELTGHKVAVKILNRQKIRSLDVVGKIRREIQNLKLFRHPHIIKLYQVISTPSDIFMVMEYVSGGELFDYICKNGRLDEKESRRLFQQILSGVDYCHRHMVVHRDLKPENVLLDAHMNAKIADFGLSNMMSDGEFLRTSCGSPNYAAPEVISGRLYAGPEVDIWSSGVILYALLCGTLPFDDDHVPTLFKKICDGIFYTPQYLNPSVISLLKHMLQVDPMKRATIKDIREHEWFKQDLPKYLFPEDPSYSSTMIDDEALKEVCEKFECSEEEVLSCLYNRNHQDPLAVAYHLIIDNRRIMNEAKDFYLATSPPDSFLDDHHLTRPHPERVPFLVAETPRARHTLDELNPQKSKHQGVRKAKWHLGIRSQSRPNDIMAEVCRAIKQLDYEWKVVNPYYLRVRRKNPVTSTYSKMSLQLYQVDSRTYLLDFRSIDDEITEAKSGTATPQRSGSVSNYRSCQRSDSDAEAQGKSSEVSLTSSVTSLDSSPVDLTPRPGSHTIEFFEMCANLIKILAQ
recombinant human AMPK complex 1 (containing α1β1γ1), sequence (Q9Y478 whole entry): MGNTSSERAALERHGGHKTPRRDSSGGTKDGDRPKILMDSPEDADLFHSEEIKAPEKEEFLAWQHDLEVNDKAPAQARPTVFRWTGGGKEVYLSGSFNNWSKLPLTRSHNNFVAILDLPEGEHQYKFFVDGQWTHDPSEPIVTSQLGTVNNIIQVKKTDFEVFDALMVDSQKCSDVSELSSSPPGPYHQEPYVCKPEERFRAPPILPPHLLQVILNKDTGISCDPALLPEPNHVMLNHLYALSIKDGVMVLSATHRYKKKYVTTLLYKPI
recombinant human AMPK complex 1 (containing α1β1γ1), sequence (P54619 whole entry partner): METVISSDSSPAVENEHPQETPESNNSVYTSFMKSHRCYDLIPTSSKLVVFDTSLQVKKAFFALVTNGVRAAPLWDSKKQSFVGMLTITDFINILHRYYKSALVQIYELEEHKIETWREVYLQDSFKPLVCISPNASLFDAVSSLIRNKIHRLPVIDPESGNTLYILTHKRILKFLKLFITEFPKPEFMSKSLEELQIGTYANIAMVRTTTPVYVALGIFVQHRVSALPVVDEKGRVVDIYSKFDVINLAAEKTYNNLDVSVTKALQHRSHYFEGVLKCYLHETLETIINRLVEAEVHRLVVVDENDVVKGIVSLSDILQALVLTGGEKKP

O=C(O)C1CCC(Oc2nc3c(F)c(-c4ccc(-c5ccc(C(=O)N6CCC(O)CC6)cc5)cc4)c(F)cc3[nH]2)CC1 (single isomer, unassigned) [Example 20, 4-[(4,6-difluoro-5-{4′-[(4-hydroxypiperidin-1-yl)carbonyl]biphenyl-4-yl}-1H-benzimidazol-2-yl)oxy]cyclohexanecarboxylic acid]
% Maximum AMP Activation of human AMPK Complex 1 [1]: 642% | EC50 [1]: 10 nM

NC(=O)c1ncn([C@@H]2O[C@H](CO)[C@@H](O)[C@H]2O)c1N [AICAR]
blood glucose reduction (ob/ob and db/db mice): 35%

O=C(O)C1CC1COc1nc2c(F)c(-c3ccc(-c4ccccc4)cc3)c(F)cc2[nH]1 (stereo not drawn) [Example 19, 2-({[5-(biphenyl-4-yl)-4,6-difluoro-1H-benzimidazol-2-yl]oxy}methyl)cyclopropane-carboxylic acid]
% Maximum AMP Activation of human AMPK Complex 1 [1]: 631% | EC50 [1]: 17 nM

O=C(O)C1CCC(Oc2nc3c(F)c(-c4ccc(-c5ccccc5)cc4)c(F)cc3[nH]2)CC1 (stereo not drawn) [Example 15, 4-{[5-(biphenyl-4-yl)-4,6-difluoro-1H-benzimidazol-2-yl]oxy}-cyclohexane carboxylic acid]
% Maximum AMP Activation of human AMPK Complex 1 [1]: 653% | EC50 [1]: 10 nM

O=C(O)C1CCC(Oc2nc3c(F)c(-c4ccc5c(ccn5C5CC5)c4)c(F)cc3[nH]2)CC1 (stereo not drawn) [Example 21, 4-{[5-(1-Cyclopropyl-1H-indol-5-yl)-4,6-difluoro-1H-benzimidazol-2-yl]oxy}cyclohexanecarboxylic acid]
% Maximum AMP Activation of human AMPK Complex 1 [1]: 504% | EC50 [1]: 4 nM

O=C(O)C1CCCC(Oc2nc3c(F)c(-c4ccc(-c5ccccc5)cc4)c(F)cc3[nH]2)C1 (stereo not drawn) [Example 16, 3-{[5-(biphenyl-4-yl)-4,6-difluoro-1H-benzimidazol-2-yl]oxy}cyclohexanecarboxylic acid]
% Maximum AMP Activation of human AMPK Complex 1 [1]: 617% | EC50 [1]: 6 nM

O=C(O)C1CCC(Oc2nc3c(F)c(-c4ccc(-c5ccccc5)cc4)c(F)cc3[nH]2)C1 (stereo not drawn) [Example 17, 3-{[5-(biphenyl-4-yl)-4,6-difluoro-1H-benzimidazol-2-yl]oxy}cyclopentanecarboxylic acid]
% Maximum AMP Activation of human AMPK Complex 1 [1]: 593% | EC50 [1]: 13 nM

O=C(O)C1CC(Oc2nc3c(F)c(-c4ccc(-c5ccccc5)cc4)c(F)cc3[nH]2)C1 (stereo not drawn) [Example 18, 3-{[5-(biphenyl-4-yl)-4,6-difluoro-1H-benzimidazol-2-yl]oxy}cyclobutanecarboxylic acid]
% Maximum AMP Activation of human AMPK Complex 1 [1]: 538% | EC50 [1]: 14 nM
